Entries after “also recorded” stand apart in the source; their conditions may differ. Where two headings read alike, the source gives them in different places.
Tests used:
swine coronary arteries = test: Swine Coronary Artery Study: MIC catheter infusion after embolectomy or over-sized PTCA balloon trauma, morphometry at 4 weeks; format: in vivo
Protocol: Swine coronary arteries were also traumatized by embolectomy or over-sized PTCA balloon, and then 8-16 ml of cytochalasin B at 8.0 µg/ml was infused into the arterial wall with a MIC catheter to achieve a therapeutic dose. Controls included a diluent control and a traumatized untreated control, and all animals were sacrificed 4 weeks after intervention and coronary arteries were fixed by perfusion. Morphometry was performed on selected sections from proximal, treated and distal segments of coronary arteries (Table 15).
The diameter of, or the area within, the EEL of the artery can be compared to controls as an indicator of the degree of vascular remodeling. The lack of a statistically significant increase in luminal area may be due to increased sample variablility, increased neointimal formation, and/or increased degree of trauma.

[1] = system: Vascular smooth muscle (BO54) cells; format: cell-based, baboon
[2] = system: vascular smooth muscle cells; format: in vivo, pig; settings: 4 days post-trauma
[3] = system: Vascular smooth muscle cells; settings: 1 µg/ml; an anti-migration/contraction effective dose
[4] = 7 day intravenous toxicity study; format: in vivo, rats; settings: 10 µg/ml four times a day for 7 days (800 µg/kg daily)
Protocol: To determine the metabolism of ^3H-cytochalasin B in human blood, ^3H-cytochalasin B (8 µg/ml) was dissolved in saline; 1:1 dilution of saline and human plasma; or 1:1 dilution of saline and human whole blood. […] Toxicity Studies. To determine the toxicity of cytochalasin B, rats (4 male and 4 female) were injected with 10 µg/ml cytochalasin B four times a day for 7 days (Table 11). Data regarding body weight changes, food consumption, food efficiency, hematology parameters, coagulation parameters, serum chemistry parameters, and gross necropsy findings were collected. […] There were no gross or microscopic changes detected in the heart to account for the elevation. Thus, daily administration of cytochalasin B to rats at a dose of 800 µg/kg (for a total injected dose of 5600 µg/kg) may have an effect on heart weight of female (but not male) rats. However, clotted blood was not routinely removed from the heart lumens prior to weighing the heart.

[5] = mouse, in vivo
Pig femoral arteries = test: Biological stenting of balloon traumatized femoral arteries (luminal area morphometry); format: in vivo
Protocol: Pig femoral arteries were traumatized as described in Example 7, and then treated with cytochalasin B. About 1.5 to about 2 ml of cytochalasin B at 0.1 µg/ml was infused into portions of the artery that had been separated from other portions by ligatures. The artery was then pressurized for 3 minutes and the fluid aspirated. Approximately 8 to about 30 lambda of the solution is retained in the interstitial space surrounding the cells in the tunica media. Ten femoral arteries (two arteries obtained from each of the 5 pigs that were treated according to the single dose protocol described in Example 7) were then evaluated histologically at 4 days or 3 weeks after cytochalasin B adminstration. The maximal luminal area of each artery was measured and calculated from digitized microscopic images by a BQ System IV computerized morphometric analysis system (R & M Biometrics, Inc., Nashville, TN). This experiment was repeated with 5 additional pigs (two arteries per pig; cytochalasin B dose = 0.1 µg/ml, applied for 3 minutes at 1 atm pressure; same time points). The data obtained from the two experiments were combined.
The luminal area of the traumatized and cytochalasin B-treated segments of the arteries were also compared to the luminal area of the normal, untreated region of the femoral artery proximal to the test area.
A cytochalasin B dose response study was then conducted on 10 pigs, following the experimental protocol described in Example 7. Briefly, both femoral arteries in each of 2 pigs were treated with one of the following doses of cytochalasin B: 0.0 µg/ml (i.e., PBS negative control); 0.01 µg/ml; 0.10 µg/ml; 1.0 µg/ml; and 10.0 µg/ml as described above. The agent was delivered by intraluminal catheter at 1 atm pressure for 3 minutes, and the arteries were evaluated 3 weeks later by the morphometric analysis system described above. The ratio of treated artery luminal area to proximal normal artery luminal area was determined as a percent change in treated vs. normal area, or the artery lumen size (diameter or cross sectional area) of treated arteries relative to traumatized but untreated arteries.
Balloon traumatized swine femoral arteries from control and treated (0.1 µg/ml cytochalasin B) were evaluated at 1, 4, 7, 14, or 21 days after intervention. […] A two way analysis of variance indicated a statistically significant difference (p<.05) in the artery lumen areas over three weeks between the cytochalasin B treated and diluent control groups.

[6] = system: Vascular smooth muscle (BO54) cells; format: cell-based, baboon; remark: listed apart in the source
[7] = system: balloon traumatized rabbit carotid artery; format: in vivo
[8] = 8.0 µg/ml infused with MIC catheter after embolectomy or over-sized PTCA balloon trauma, sacrificed 4 weeks after intervention, mean
[9] = 8-16 ml at 8.0 µg/ml, 4 weeks after intervention
[10] = Group 7a: 10% wt/wt, three weeks

C=C1[C@@H](C)[C@H]2[C@H](Cc3ccccc3)NC(=O)[C@]23OC(=O)/C=C/[C@H](O)CCC[C@@H](C)C/C=C/[C@H]3[C@@H]1O [cytochalasin B]
Neointimal Area (swine coronary arteries; [8]): 1.56
luminal area (swine coronary arteries; [8]): 0.58
arterial area bounded by the external elastic lamina (swine coronary arteries; [9]): trend toward beneficial arterial remodeling
luminal area (swine coronary arteries; [9]): did not result in a statistically significant increase in luminal area
Arterial Area (swine coronary arteries; area bounded by external elastic lamina, 8.0 µg/ml infused with MIC catheter, sacrificed 4 weeks after intervention, mean): 1.80
minimum effective dose (MED), DNA assay ([1]; 5 minute exposure): 10 µg/mL
therapeutic range (area under the curve of ^3H-leucine assay greater than ^3H-thymidine assay) ([1]; 24 hour assays, 5% FBS): available therapeutic range
minimum effective dose (MED), DNA synthesis assay ([1]; 24 hour exposure): 0.1 µg/mL
BRDU labeling grade [2]: 4 (4 = > 10/HPF)
cytotoxicity grade [3]: 1
morphometry compared to untreated control animals (left carotid artery; 14 days, periadventitial crystals): no statistical difference from the controls
toxicity at the surgical site (left carotid artery; periadventitial crystals: cytochalasin B 7.8 - 11.8 mg/rat, taxol 3.4 - 6.5 mg/rat): significant toxicity at the surgical site
only parameter which suggested an adverse effect [4]: elevation of the mean relative heart weight in treated female animals
levels in tissues [5]: very low levels
maximal recovery from tissue extracts ([5]; iv, 3.5 mg/kg): 32%
percent change in treated vs. normal luminal area (Pig femoral arteries; 0.1 µg/ml, 1 atm for 3 minutes, 3 weeks later): ~140%
artery lumen area over three weeks (Pig femoral arteries; 0.1 µg/ml, 1, 4, 7, 14, or 21 days after intervention): sustained dilation which changed very little between days 7 and 21
luminal area compared to other test agents or controls (Pig femoral arteries; 0.1 µg/ml, 4 day and 3 week post-treatment): larger luminal area
toxicity (Pig femoral arteries; at 10 µg/ml): no evidence of toxicity
threshold level of the therapeutic effect (Pig femoral arteries; no effect below this dose): 0.1 µg/mL
lumen area in the test region compared to the normal control segment of the same artery (Pig femoral arteries; pig, in vivo): approximately two times as large
minimum effective dose (MED), protein synthesis assay ([6]; 5 minute exposure): 10 µg/mL
minimum effective dose (MED), protein synthesis assay ([6]; 24 hour exposure): 1.0 µg/mL
intimal proliferation ([7]; Group 1: 20 mg in 1 g bovine collagen gel, bovine collagen mesh wrap, 1 week): no intimal or adventital proliferation
intimal proliferation ([7]; Group 1: 20 mg in 1 g bovine collagen gel, bovine collagen mesh wrap, 2 weeks): minimal intimal and adventital proliferation
intimal proliferation ([7]; Group 1: 20 mg in 1 g bovine collagen gel, bovine collagen mesh wrap, three weeks): no intimal proliferation
intimal proliferation ([7]; Group 2: 30% wt/wt in silicone wrap, 3 weeks): moderate, irregular intimal proliferation
intimal proliferation ([7]; Group 2: 30% wt/wt in silicone wrap, one week): no significant intimal or adventitial proliferation
intimal proliferation ([7]; Group 2: 30% wt/wt in silicone wrap, two weeks): complete inhibition of intimal proliferation
intimal proliferation ([7]; Group 3: 8 mg in 100 mg pluronic gel, bovine collagen mesh wrap, one week): mild intimal proliferation
intimal proliferation ([7]; Group 3: 8 mg in 100 mg pluronic gel, bovine collagen mesh wrap, three weeks): moderate amount of intimal hyperplasia
intimal proliferation ([7]; Group 3: 8 mg in 100 mg pluronic gel, bovine collagen mesh wrap, two weeks): mild, irregular intimal proliferation
re-endothelization ([7]; Group 3: 8 mg in 100 mg pluronic gel, one week): approximately 30%
intimal proliferation ([7]; Group 4: 100 mg (10% wt/wt) in 1 g silicone wrap, one week): no intimal proliferation
intimal proliferation ([7]; Group 4: 100 mg (10% wt/wt) in 1 g silicone wrap, three weeks): minimal to no intimal proliferation
intimal proliferation ([7]; Group 4: 100 mg (10% wt/wt) in 1 g silicone wrap, two weeks): minimal intimal proliferation
re-endothelization ([7]; Group 4: 10% wt/wt silicone wrap, three weeks): < 10%
intimal proliferation ([7]; Group 7a: 10% wt/wt, one and two weeks): no intimal proliferation for 2 weeks
intimal proliferation [7, 10]: mild irregular intimal proliferation
re-endothelized [7, 10]: 70%
intimal proliferation ([7]; Group 8a: 10% wrap for 2 weeks, removed, evaluated 2 weeks later, animals 1254, 1255, 1256): none to mild; also recorded: mild to moderate intimal proliferation
intimal proliferation ([7]; Group 10: 10 mg in 1 g silicone wrap (1% wt/wt) for 2 weeks, removed, 2 weeks later, animal 1304): moderate initmal proliferation
re-endothelization ([7]; Group 10: 1% wrap for 2 weeks, removed, 2 weeks later, animal 1304): 100%
re-endothelized ([7]; Group 11: 1% wrap for 2 weeks, removed, four weeks later, animal 1308): 100%
intimal proliferation ([7]; Group 11: 1% wrap for 2 weeks, removed, four weeks later, animals 1307, 1308, 1309): moderate initmal proliferation; also recorded: moderate intimal proliferation; also recorded: marked intimal proliferation
qualitative difference between test and control animals ([7]; Groups 10 and 11: 1% wt/wt silicone wrap for 2 weeks, removed, 2 or 4 weeks later): No significant difference

From patent publication EP2292225A1 (priority 1997, dated 1998)
